Results published in patent US10259782B2, “ROR gamma (RORγ) modulators” (LEAD PHARMA HOLDING B.V., priority 2015, dated 2019).

Molecular target: T1, RORγ (Homo sapiens, UniProt P51449)
T1 construct: expressed in transfected cells; host or cells: 293FT cells (Invitrogen), expression vector pFN26A (Promega)
T1 sequence (P51449 269-508 limits assumed): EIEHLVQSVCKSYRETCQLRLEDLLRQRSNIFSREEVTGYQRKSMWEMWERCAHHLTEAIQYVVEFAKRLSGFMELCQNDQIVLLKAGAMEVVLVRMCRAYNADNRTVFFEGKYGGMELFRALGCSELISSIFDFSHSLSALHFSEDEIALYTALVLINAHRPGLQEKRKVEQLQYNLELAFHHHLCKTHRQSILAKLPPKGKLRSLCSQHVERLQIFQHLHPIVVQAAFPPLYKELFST
Experiment: RORγ GAL4 reporter gene assay (luciferase readout, 293FT cells)
Type: cell-based
Details: inhibition of RORγ (GAL4-RORγ-LBD) in transfected 293FT cells, luciferase signal, overnight incubation; read-out: mean pIC50 (converted)
Method: RORγ GAL4 Reporter Gene Assay
Example inhibitors 1-47 were tested for their ability to inhibit RORγ activity in a RORγ GAL4 reporter gene assay. The assay procedure and results are described below.
RORγ GAL4 Reporter Gene Assay Description
A GAL4 one-hybrid reporter system employing luciferase readout was established to determine inhibition of RORγ in 293FT cells. The RORγ ligand-binding domain (LBD) was fused to the yeast GAL4 DNA binding domain (DBD) and placed under the control of the human cytomegalovirus (CMV) immediate early promoter, using expression vector pFN26A (Promega) and standard recombinant DNA cloning methods. To serve as a control in the assay, a similar vector was generated in which the GAL4-DBD was fused to Herpes simplex virus protein 16 (VP16), a constitutive transcriptional activator.
To monitor the inhibitory effect of compounds on RORγ, a transcriptional reporter construct was used. The pGL4.35 vector (Promega) contains nine copies of the GAL4 Upstream Activator Sequence (UAS). This sequence drives the transcription of the luciferase reporter gene luc2P in response to binding of a fusion protein containing the GAL4 DNA binding domain, as for example expressed by the GAL4-RORγ-LBD and GAL4-VP16 expression vectors described above. To allow a GAL4 fusion protein to drive the expression of the luciferase reporter, the pGL4.35 expression vector and the appropriate GAL4 fusion protein expression vector were bulk transfected in the 293FT cells using standard transfection techniques.
The day after transfection, cells were plated into 96 well plates, test compound was added and the plates were incubated overnight. Subsequently, the firefly luciferase activity was quantified using luciferase detection reagent and luminescence readout.
Detailed Assay Description
293FT cells (Invitrogen) were transfected with a GAL4 fusion protein expression vector (as described above) and the transcriptional reporter construct (pGL4.35, Promega). 60 μL of TransIT-293 transfection reagent (Mirus Bio) was added drop wise to 1500 μl Opti-MEM I Reduced Serum Medium (Invitrogen) and incubated at room temperature (RT) for 5 to 20 minutes. 1500 μL of this reagent mixture was added to 5 μg of GAL4 fusion protein expression vector and 5 μg of the transcriptional reporter construct, and incubated at RT for 20 minutes.
To harvest 293FT cells from a T75 flask, first the culture medium was taken off the cells. Subsequently, the cells were washed with Phosphate Buffered Saline (PBS) (Lonza), after which the PBS was removed. To dissociate the cells, 1 ml of TrypLE Express (Invitrogen) was added to the flask, followed by incubation at RT until the cells visually started to detach. Cells were collected in 5 mL of assay medium (DMEM culture medium (Lonza), 10% dialyzed FBS (Invitrogen) and Pen/Strep (Lonza)) to achieve a single cell suspension. 10×10^6 cells were spun down and re-suspended in 10 mL of assay medium. Subsequently, the cell suspension was added to the transfection mix tube, and then transferred as a whole to a T75 flask (Greiner), followed by overnight (16-24 hours) incubation at 37° C. and 5% CO2.
For compound screening, the cells were harvested (as described above) and counted. 13×10^6 cells were spun down, the supernatant was aspirated and the cells were re-suspended in 17.3 mL of assay medium obtaining a cell suspension of 0.75×10^6 cells/mL. 80 μL of cell suspension (60,000 cells) was plated per well into a white, flat bottom, tissue culture treated, 96 well screening plates (Greiner).
Test compounds were diluted, starting from a 10 mM dimethylsulf oxide (DMSO) stock solution, to serial dilutions in DMSO at 500× the final test concentration. Subsequently, these solutions were diluted to 5× the final test concentration in two 10-fold-dilution steps in assay medium. The final DMSO concentration of the 5× test compound solution was 1%. […]

Row | SMILES | IC50 [nM]
1 | COc1cccc(Oc2cc(NC(=O)Cc3ccc(S(=O)(=O)NC4CC4)cc3)ccc2-n2cnc(C)c2)c1 [Example 14, 2-[4-(cyclopropylsulfamoyl)phenyl]-N-[3-(3-methoxyphenoxy)-4-(4-methyl-1H-imidazol-1-yl)phenyl]acetamide] | ≤ 1000
2 | COc1cccc(Oc2cc(NC(=O)Cc3ccc(S(=O)(=O)NC4CC4)cc3)ccc2-c2cccc(F)c2)c1 [Example 16, 2-[4-(cyclopropylsulfamoyl)phenyl]-N-[4-(3-fluorophenyl)-3-(3-methoxyphenoxy)phenyl]acetamide] | ≤ 1000
3 | N#Cc1cccc(Oc2cc(NC(=O)Cc3ccc(S(=O)(=O)CC4CC4)cc3)ccc2-c2ccc(F)c(F)c2)c1 [Example 6, N-[3-(3-cyanophenoxy)-4-(3,4-difluorophenyl)phenyl]-2-(4-cyclopropylmethanesulfonylphenyl)acetamide] | ≤ 100
4 | O=C(Cc1ccc(S(=O)(=O)CC2CC2)cc1)Nc1ccc(-c2cccc(F)c2)c(Oc2cc(F)cc(F)c2)c1 [Example 13, 2-(4-cyclopropylmethanesulfonylphenyl)-N-[3-(3,5-difluorophenoxy)-4-(3-fluorophenyl)phenyl]acetamide] | ≤ 100
5 | COc1cccc(Oc2cc(NC(=O)Cc3ccc(S(=O)(=O)CC4CC4)cc3)ccc2-n2cnc(C)c2)c1 [Example 3, 2-(4-cyclopropylmethanesulfonylphenyl)-N-[3-(3-methoxyphenoxy)-4-(4-methyl-1H-imidazol-1-yl)phenyl]acetamide] | ≤ 100
6 | O=C(Cc1ccc(S(=O)(=O)CC2CC2)cc1)Nc1ccc(-c2cccc(F)c2)c(Oc2cccc(C(F)(F)F)c2)c1 [Example 11, 2-(4-cyclopropylmethanesulfonylphenyl)-N-[4-(3-fluorophenyl)-3-[3-(trifluoromethyl)phenoxy]phenyl]acetamide] | ≤ 100
7 | O=C(Cc1ccc(S(=O)(=O)NC2CC2)cc1)Nc1ccc(-c2cccc(F)c2)c(Oc2cccc(Cl)c2)c1 [Example 17, N-[3-(3-chlorophenoxy)-4-(3-fluorophenyl)phenyl]-2-[4-(cyclopropylsulfamoyl)phenyl]acetamide] | ≤ 1000
8 | O=C(Cc1ccc(S(=O)(=O)NC2CC2)cc1)Nc1ccc(-c2cccc(F)c2)c(Oc2cccc(C(F)(F)F)c2)c1 [Example 19, 2-[4-(cyclopropylsulfamoyl)phenyl]-N-[4-(3-fluorophenyl)-3-[3-(trifluoromethyl)phenoxy]phenyl]acetamide] | ≤ 1000
9 | N#Cc1ccc(-c2ccc(NC(=O)Cc3ccc(S(=O)(=O)CC4CC4)cc3)cc2Oc2cccc(F)c2)cc1 [Example 9, N-[4-(4-cyanophenyl)-3-(3-fluorophenoxy)phenyl]-2-(4-cyclopropylmethanesulfonylphenyl)acetamide] | ≤ 100
10 | O=C(Cc1ccc(S(=O)(=O)CC2CC2)cc1)Nc1ccc(-c2cc(F)cc(F)c2)c(Oc2cccc(Cl)c2)c1 [Example 8, N-[3-(3-chlorophenoxy)-4-(3,5-difluorophenyl)phenyl]-2-(4-cyclopropylmethanesulfonylphenyl)acetamide] | ≤ 100
11 | COc1cccc(Oc2cc(NC(=O)Cc3ccc(S(=O)(=O)CC4CC4)cc3)ccc2-n2nccc2C)c1 [Example 7, 2-(4-cyclopropylmethanesulfonylphenyl)-N-[3-(3-methoxyphenoxy)-4-(5-methyl-1H-pyrazol-1-yl)phenyl]acetamide] | ≤ 100

Continued, values first:

Row | IC50 [nM] | SMILES
12 | ≤ 100 | Cc1cc(NC(=O)Cc2ccc(S(=O)(=O)NC3CC3)cc2)ccc1-c1ccccc1OC(F)(F)F [Example 36, 2-[4-(cyclopropylsulfamoyl)phenyl]-N-{3-methyl-4-[2-(trifluoromethoxy)phenyl]phenyl}acetamide]
13 | ≤ 100 | O=C(Cc1ccc(S(=O)(=O)CC2CC2)cc1)Nc1nc(-c2cccc(Cl)c2)c(C(=O)c2ccc(Cl)cc2)s1 [Example 23, N-[5-(4-chlorobenzoyl)-4-(3-chlorophenyl)-1,3-thiazol-2-yl]-2-(4-cyclopropylmethanesulfonylphenyl)acetamide]
14 | ≤ 100 | Cc1cc(NC(=O)Cc2ccc(S(=O)(=O)CC3CC3)cc2)ncc1-c1ccccc1OC(F)(F)F [Example 31, 2-(4-cyclopropylmethanesulfonylphenyl)-N-{4-methyl-5-[2-(trifluoromethoxy)phenyl]pyridin-2-yl}acetamide]
15 | ≤ 100 | O=C(Cc1ccc(S(=O)(=O)NC2CC2)cc1)Nc1ccc(-c2ccccc2OC(F)(F)F)c(Cl)c1 [Example 33, N-{3-chloro-4-[2-(trifluoromethoxy)phenyl]phenyl}-2-[4-(cyclopropylsulfamoyl)phenyl]acetamide]
16 | ≤ 100 | Cc1nc(NC(=O)Cc2ccc(S(=O)(=O)NC3CC3)cc2)ccc1-c1ccccc1OC(F)(F)F [Example 34, 2-[4-(cyclopropylsulfamoyl)phenyl]-N-{6-methyl-5-[2-(trifluoromethoxy)phenyl]pyridin-2-yl}acetamide]
17 | ≤ 100 | O=C(Cc1ccc(S(=O)(=O)CC2CC2)cc1)Nc1cc(-c2ccccc2)c(C(=O)c2ccccc2)s1 [Example 27, N-(5-benzoyl-4-phenylthiophen-2-yl)-2-(4-cyclopropylmethanesulfonylphenyl)acetamide]
18 | ≤ 1000 | Cc1cc(NC(=O)Cc2ccc(S(=O)(=O)NC3CC3)cc2)ncc1-c1ccccc1OC(F)(F)F [Example 35, 2-[4-(cyclopropylsulfamoyl)phenyl]-N-{4-methyl-5-[2-(trifluoromethoxy)phenyl]pyridin-2-yl}acetamide]
19 | ≤ 100 | O=C(Cc1ccc(S(=O)(=O)CC2CC2)cc1)Nc1ccc(-c2ccccc2OC(F)(F)F)c(Cl)c1 [Example 28, N-{3-chloro-4-[2-(trifluoromethoxy)phenyl]phenyl}-2-(4-cyclopropylmethanesulfonylphenyl)acetamide]
20 | ≤ 1000 | Cc1ccnn1-c1ccc(NC(=O)Cc2ccc(S(=O)(=O)CC3CC3)cc2)cc1 [Example 41, 2-(4-cyclopropylmethanesulfonylphenyl)-N-[4-(5-methyl-1H-pyrazol-1-yl)phenyl]acetamide]
21 | ≤ 1000 | Cc1cnn(-c2ccc(NC(=O)Cc3ccc(S(=O)(=O)CC4CC4)cc3)cc2)c1 [Example 42, 2-(4-cyclopropylmethanesulfonylphenyl)-N-[4-(4-methyl-1H-pyrazol-1-yl)phenyl]acetamide]
22 | ≤ 100 | O=C(Cc1ccc(S(=O)(=O)CC2CC2)cc1)Nc1nc(-c2ccccc2)c(C(=O)c2ccccc2)s1 [Example 22, N-(5-benzoyl-4-phenyl-1,3-thiazol-2-yl)-2-(4-cyclopropylmethanesulfonylphenyl)acetamide]
23 | ≤ 1000 | O=C(Cc1ccc(S(=O)(=O)CC2CC2)cc1)Nc1cc(-c2ccccc2)cs1 [Example 24, 2-(4-cyclopropylmethanesulfonylphenyl)-N-(4-phenylthiophen-2-yl)acetamide]
24 | ≤ 1000 | O=C(Cc1ccc(S(=O)(=O)CC2CC2)cc1)Nc1ccc(-n2cccn2)cc1 [Example 44, 2-(4-cyclopropylmethanesulfonylphenyl)-N-[4-(1H-pyrazol-1-yl)phenyl]acetamide]
25 | ≤ 1000 | O=C(Cc1ccc(S(=O)(=O)CC2CC2)cc1)Nc1ccc(-n2cncn2)cc1 [Example 46, 2-(4-cyclopropylmethanesulfonylphenyl)-N-[4-(1H-1,2,4-triazol-1-yl)phenyl]acetamide]
